Drawing on the NIST ThermoML archive (doi:10.1016/j.fluid.2014.06.021), this text covers activity coefficient for 32 compounds.

A short description of this data set: activity coefficient (dimensionless); of the first substance listed, at infinite dilution; xn = mol fraction of the nth substance listed. Particulars: 101.33 kPa, Liquid, Chromatography, x1 = 0.

Numbers after ± are expanded uncertainties.

In the case of `CCc1ccccc1` [ethylbenzene] + C[n+]1ccn(CCCCS(=O)(=O)O)c1.O=S(=O)([O-])C(F)(F)F, the activity coefficient (323.15 K) stood at 10.8 ± 0.74, the activity coefficient (333.15 K) turned out to be 10.3 ± 0.7 and the activity coefficient (343.15 K) was found to be 10.3 ± 0.7.

As to `CCc1ccccc1` [ethylbenzene] + C[n+]1ccn(CCCCS(=O)(=O)O)c1.O=S(=O)([O-])O, the activity coefficient came out at 62.7 ± 4.3 (323.15 K), 57.6 ± 3.9 (333.15 K) and 54.5 ± 3.7 (343.15 K).

For the compound `CO` [methanol] + C[n+]1ccn(CCCCS(=O)(=O)O)c1.O=S(=O)([N-]S(=O)(=O)C(F)(F)F)C(F)(F)F, the activity coefficient was determined as 0.06 (323.15 K), 0.08 ± 0.03 (333.15 K) and 0.09 ± 0.03 (343.15 K).

For `C[N+](=O)[O-]` [nitromethane] + C[n+]1ccn(CCCCS(=O)(=O)O)c1.O=S(=O)([N-]S(=O)(=O)C(F)(F)F)C(F)(F)F, the activity coefficient is, setting by setting: (323.15 K) 0.6 ± 0.1; (333.15 K) 0.6 ± 0.1; (343.15 K) 0.6 ± 0.1.

In the case of `C[N+](=O)[O-]` [nitromethane] + C[n+]1ccn(CCCCS(=O)(=O)O)c1.O=S(=O)([O-])C(F)(F)F, the activity coefficient runs as follows: (323.15 K) 0.72 ± 0.05; (333.15 K) 0.71 ± 0.05; (343.15 K) 0.71 ± 0.05.

For the compound `C[N+](=O)[O-]` [nitromethane] + C[n+]1ccn(CCCCS(=O)(=O)O)c1.O=S(=O)([O-])O, the activity coefficient is, setting by setting: (323.15 K) 1.58 ± 0.1; (333.15 K) 1.59 ± 0.11; (343.15 K) 1.6 ± 0.11.

On to `CCCC(C)=O` [pentan-2-one] + C[n+]1ccn(CCCCS(=O)(=O)O)c1.O=S(=O)([N-]S(=O)(=O)C(F)(F)F)C(F)(F)F, for which the activity coefficient reads like this: (323.15 K) 0.42 ± 0.04; (333.15 K) 0.52 ± 0.04; (343.15 K) 0.64 ± 0.04.

Take `CCCC(C)=O` [pentan-2-one] + C[n+]1ccn(CCCCS(=O)(=O)O)c1.O=S(=O)([O-])C(F)(F)F: the activity coefficient turned out to be 2.11 ± 0.14 (323.15 K), 2.14 ± 0.15 (333.15 K) and 2.19 ± 0.15 (343.15 K).

Consider `CCCC(C)=O` [pentan-2-one] + C[n+]1ccn(CCCCS(=O)(=O)O)c1.O=S(=O)([O-])O, for which the activity coefficient reads like this: (323.15 K) 13.4 ± 0.92; (333.15 K) 13.2 ± 0.9; (343.15 K) 12.5 ± 0.85.

Turning to `CCC(=O)CC` [pentan-3-one] + C[n+]1ccn(CCCCS(=O)(=O)O)c1.O=S(=O)([N-]S(=O)(=O)C(F)(F)F)C(F)(F)F, the activity coefficient is, setting by setting: (323.15 K) 0.54 ± 0.04; (333.15 K) 0.64 ± 0.04; (343.15 K) 0.77 ± 0.05.

As to `CCC(=O)CC` [pentan-3-one] + C[n+]1ccn(CCCCS(=O)(=O)O)c1.O=S(=O)([O-])C(F)(F)F, the activity coefficient came out at 2.31 ± 0.16 (323.15 K), 2.33 ± 0.16 (333.15 K) and 2.44 ± 0.17 (343.15 K).

Take `CCC(=O)CC` [pentan-3-one] + C[n+]1ccn(CCCCS(=O)(=O)O)c1.O=S(=O)([O-])O: the activity coefficient turned out to be 14.2 ± 0.97 (323.15 K), 13.8 ± 0.94 (333.15 K) and 13.2 ± 0.9 (343.15 K).

`CCCO` [propan-1-ol] + C[n+]1ccn(CCCCS(=O)(=O)O)c1.O=S(=O)([N-]S(=O)(=O)C(F)(F)F)C(F)(F)F: the activity coefficient worked out at 0.13 ± 0.03 (333.15 K) and 0.16 ± 0.03 (343.15 K).

For `CC(C)O` [propan-2-ol] + C[n+]1ccn(CCCCS(=O)(=O)O)c1.O=S(=O)([N-]S(=O)(=O)C(F)(F)F)C(F)(F)F, the activity coefficient runs as follows: (333.15 K) 0.09 ± 0.03; (343.15 K) 0.11 ± 0.03.

In the case of `ClC(Cl)(Cl)Cl` [tetrachloromethane] + C[n+]1ccn(CCCCS(=O)(=O)O)c1.O=S(=O)([N-]S(=O)(=O)C(F)(F)F)C(F)(F)F, the activity coefficient by setting is: (323.15 K) 7.71 ± 0.53; (333.15 K) 7.99 ± 0.54; (343.15 K) 8.1 ± 0.6.

For the compound `ClC(Cl)(Cl)Cl` [tetrachloromethane] + C[n+]1ccn(CCCCS(=O)(=O)O)c1.O=S(=O)([O-])C(F)(F)F, the activity coefficient was found to be 12.4 ± 0.85 (323.15 K), 12.1 ± 0.83 (333.15 K) and 11.4 ± 0.78 (343.15 K).

As for `CCCCCCCCCCCCCC` [tetradecane] + C[n+]1ccn(CCCCS(=O)(=O)O)c1.O=S(=O)([N-]S(=O)(=O)C(F)(F)F)C(F)(F)F, the activity coefficient runs as follows: (323.15 K) 1180 ± 81; (333.15 K) 1060 ± 73; (343.15 K) 941 ± 65.

`CCCCCCCCCCCCCC` [tetradecane] + C[n+]1ccn(CCCCS(=O)(=O)O)c1.O=S(=O)([O-])O: the activity coefficient (323.15 K) is 1910 ± 130, the activity coefficient (333.15 K) was 1750 ± 120 and the activity coefficient (343.15 K) came out at 1680 ± 120.

In the case of `c1ccsc1` [thiophene] + C[n+]1ccn(CCCCS(=O)(=O)O)c1.O=S(=O)([N-]S(=O)(=O)C(F)(F)F)C(F)(F)F, the activity coefficient (323.15 K) turned out to be 0.83 ± 0.05, the activity coefficient (333.15 K) was determined as 0.83 ± 0.05 and the activity coefficient (343.15 K) came to 0.82 ± 0.05.

As to `c1ccsc1` [thiophene] + C[n+]1ccn(CCCCS(=O)(=O)O)c1.O=S(=O)([O-])C(F)(F)F, the activity coefficient was 2.24 ± 0.15 (323.15 K), 2.23 ± 0.15 (333.15 K) and 2.22 ± 0.15 (343.15 K).

Take `c1ccsc1` [thiophene] + C[n+]1ccn(CCCCS(=O)(=O)O)c1.O=S(=O)([O-])O: the activity coefficient by setting is: (323.15 K) 6.56 ± 0.45; (333.15 K) 6.43 ± 0.44; (343.15 K) 6.13 ± 0.42.

`Cc1ccccc1` [toluene] + C[n+]1ccn(CCCCS(=O)(=O)O)c1.O=S(=O)([N-]S(=O)(=O)C(F)(F)F)C(F)(F)F: the activity coefficient (323.15 K) stood at 3.1 ± 0.2, the activity coefficient (333.15 K) worked out at 3.28 ± 0.22 and the activity coefficient (343.15 K) amounted to 3.31 ± 0.23.

`Cc1ccccc1` [toluene] + C[n+]1ccn(CCCCS(=O)(=O)O)c1.O=S(=O)([O-])C(F)(F)F: the activity coefficient is 5.74 ± 0.39 (323.15 K), 5.54 ± 0.38 (333.15 K) and 5.54 ± 0.38 (343.15 K).

As for `Cc1ccccc1` [toluene] + C[n+]1ccn(CCCCS(=O)(=O)O)c1.O=S(=O)([O-])O, the activity coefficient (323.15 K) was 28.3 ± 1.9, the activity coefficient (333.15 K) turned out to be 26.6 ± 1.8 and the activity coefficient (343.15 K) turned out to be 24.9 ± 1.7.

`ClC(Cl)Cl` [trichloromethane] + C[n+]1ccn(CCCCS(=O)(=O)O)c1.O=S(=O)([N-]S(=O)(=O)C(F)(F)F)C(F)(F)F: the activity coefficient (323.15 K) is 1.81 ± 0.12, the activity coefficient (333.15 K) is 1.83 ± 0.12 and the activity coefficient (343.15 K) worked out at 1.86 ± 0.13.

In the case of `ClC(Cl)Cl` [trichloromethane] + C[n+]1ccn(CCCCS(=O)(=O)O)c1.O=S(=O)([O-])C(F)(F)F, the activity coefficient by setting is: (323.15 K) 2.12 ± 0.14; (333.15 K) 2.18 ± 0.15; (343.15 K) 2.19 ± 0.15.

Turning to `ClC(Cl)Cl` [trichloromethane] + C[n+]1ccn(CCCCS(=O)(=O)O)c1.O=S(=O)([O-])O, the activity coefficient was found to be 6.65 ± 0.45 (323.15 K), 6.73 ± 0.46 (333.15 K) and 6.84 ± 0.47 (343.15 K).

For the compound `CCCCCCCCCCCCC` [tridecane] + C[n+]1ccn(CCCCS(=O)(=O)O)c1.O=S(=O)([N-]S(=O)(=O)C(F)(F)F)C(F)(F)F, the activity coefficient (323.15 K) is 1080 ± 75, the activity coefficient (333.15 K) is 911 ± 63 and the activity coefficient (343.15 K) amounted to 832 ± 57.

For the compound `CCCCCCCCCCCCC` [tridecane] + C[n+]1ccn(CCCCS(=O)(=O)O)c1.O=S(=O)([O-])C(F)(F)F, the activity coefficient (323.15 K) was 1940 ± 130, the activity coefficient (333.15 K) is 1550 ± 110 and the activity coefficient (343.15 K) worked out at 1220 ± 84.

Regarding `CCCCCCCCCCCCC` [tridecane] + C[n+]1ccn(CCCCS(=O)(=O)O)c1.O=S(=O)([O-])O, the activity coefficient runs as follows: (323.15 K) 1540 ± 110; (333.15 K) 1410 ± 97; (343.15 K) 1350 ± 93.

For the compound `CCCCCCCCCCC` [undecane] + C[n+]1ccn(CCCCS(=O)(=O)O)c1.O=S(=O)([N-]S(=O)(=O)C(F)(F)F)C(F)(F)F, the activity coefficient came to 515 ± 35 (323.15 K), 448 ± 31 (333.15 K) and 425 ± 29 (343.15 K).

In the case of `CCCCCCCCCCC` [undecane] + C[n+]1ccn(CCCCS(=O)(=O)O)c1.O=S(=O)([O-])O, the activity coefficient runs as follows: (323.15 K) 1490 ± 100; (333.15 K) 1370 ± 94; (343.15 K) 1310 ± 90.
